Results reported in patent US8192962B2, “Processes for detecting toxic substances” (Daikin Industries, Ltd., priority 2001, dated 2012).

Tested on: Stress protein genes
Assay: DNA chip mRNA expression in yeast, stress protein genes (Table 6)
Format: cell-based, Saccharomyces cerevisiae S288C
Outline: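 First, S288C yeast grown in YPD at 25° C. are dosed in log phase with one toxicant (growth-inhibiting, not lethal) for 2 h. Next, total RNA is extracted and poly(A) mRNA isolated and reverse-transcribed with Cy3/Cy5-dUTP. Finally, whole-genome chip fluorescence is read relative to unexposed cells.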

## O=[N+]([O-])c1cc[n+]([O-])c2ccccc12 [(5), 4-nitroquinolin-N-oxide]
Yeast gene YAL005C
  The level of expressed mRNA in the presence of chemical substance/The level of expressed mRNA in the absence of chemical substance: 1.2
Yeast gene YAL015C
  The level of expressed mRNA in the presence of chemical substance/The level of expressed mRNA in the absence of chemical substance: 1.1
Yeast gene YBL075C
  The level of expressed mRNA in the presence of chemical substance/The level of expressed mRNA in the absence of chemical substance: 1.1
Yeast gene YBL093C
  The level of expressed mRNA in the presence of chemical substance/The level of expressed mRNA in the absence of chemical substance: 1.0
Yeast gene YBR044C
  The level of expressed mRNA in the presence of chemical substance/The level of expressed mRNA in the absence of chemical substance: 1.4
Yeast gene YBR054W
  The level of expressed mRNA in the presence of chemical substance/The level of expressed mRNA in the absence of chemical substance: 0.8
Yeast gene YBR067C
  The level of expressed mRNA in the presence of chemical substance/The level of expressed mRNA in the absence of chemical substance: 1.1
Yeast gene YBR072W
  The level of expressed mRNA in the presence of chemical substance/The level of expressed mRNA in the absence of chemical substance: 1.2
Yeast gene YBR126C
  The level of expressed mRNA in the presence of chemical substance/The level of expressed mRNA in the absence of chemical substance: 0.7
Yeast gene YBR169C
  The level of expressed mRNA in the presence of chemical substance/The level of expressed mRNA in the absence of chemical substance: 0.8
Yeast gene YCL035C
  The level of expressed mRNA in the presence of chemical substance/The level of expressed mRNA in the absence of chemical substance: 1.5
Yeast gene YCR021C
  The level of expressed mRNA in the presence of chemical substance/The level of expressed mRNA in the absence of chemical substance: 0.9
Yeast gene YCR060W
  The level of expressed mRNA in the presence of chemical substance/The level of expressed mRNA in the absence of chemical substance: 0.8
Yeast gene YCR083W
  The level of expressed mRNA in the presence of chemical substance/The level of expressed mRNA in the absence of chemical substance: 1.6
Yeast gene YDL022W
  The level of expressed mRNA in the presence of chemical substance/The level of expressed mRNA in the absence of chemical substance: 0.7
Yeast gene YDL025C
  The level of expressed mRNA in the presence of chemical substance/The level of expressed mRNA in the absence of chemical substance: 0.6
Yeast gene YDR033W
  The level of expressed mRNA in the presence of chemical substance/The level of expressed mRNA in the absence of chemical substance: 1.1
Yeast gene YDR077W
  The level of expressed mRNA in the presence of chemical substance/The level of expressed mRNA in the absence of chemical substance: 0.8
Yeast gene YDR098C
  The level of expressed mRNA in the presence of chemical substance/The level of expressed mRNA in the absence of chemical substance: 1.5
Yeast gene YDR155C
  The level of expressed mRNA in the presence of chemical substance/The level of expressed mRNA in the absence of chemical substance: 0.8
Yeast gene YDR258C
  The level of expressed mRNA in the presence of chemical substance/The level of expressed mRNA in the absence of chemical substance: 1.3
Yeast gene YDR293C
  The level of expressed mRNA in the presence of chemical substance/The level of expressed mRNA in the absence of chemical substance: 0.6
Yeast gene YDR436W
  The level of expressed mRNA in the presence of chemical substance/The level of expressed mRNA in the absence of chemical substance: 0.7
Yeast gene YDR513W
  The level of expressed mRNA in the presence of chemical substance/The level of expressed mRNA in the absence of chemical substance: 0.9
Yeast gene YDR519W
  The level of expressed mRNA in the presence of chemical substance/The level of expressed mRNA in the absence of chemical substance: 0.7
Yeast gene YEL030W
  The level of expressed mRNA in the presence of chemical substance/The level of expressed mRNA in the absence of chemical substance: 0.4
Yeast gene YEL039C
  The level of expressed mRNA in the presence of chemical substance/The level of expressed mRNA in the absence of chemical substance: 0.9
Yeast gene YER042W
  The level of expressed mRNA in the presence of chemical substance/The level of expressed mRNA in the absence of chemical substance: 1.1
Yeast gene YER057C
  The level of expressed mRNA in the presence of chemical substance/The level of expressed mRNA in the absence of chemical substance: 0.8
Yeast gene YER103W
  The level of expressed mRNA in the presence of chemical substance/The level of expressed mRNA in the absence of chemical substance: 1.1
Yeast gene YER125W
  The level of expressed mRNA in the presence of chemical substance/The level of expressed mRNA in the absence of chemical substance: 1.4
Yeast gene YFL014W
  The level of expressed mRNA in the presence of chemical substance/The level of expressed mRNA in the absence of chemical substance: 1.0
Yeast gene YFL016C
  The level of expressed mRNA in the presence of chemical substance/The level of expressed mRNA in the absence of chemical substance: 1.3
Yeast gene YFL020C
  The level of expressed mRNA in the presence of chemical substance/The level of expressed mRNA in the absence of chemical substance: 1.1
Yeast gene YFR052W
  The level of expressed mRNA in the presence of chemical substance/The level of expressed mRNA in the absence of chemical substance: 1.4
Yeast gene YGL073W
  The level of expressed mRNA in the presence of chemical substance/The level of expressed mRNA in the absence of chemical substance: 1.7
Yeast gene YGL115W
  The level of expressed mRNA in the presence of chemical substance/The level of expressed mRNA in the absence of chemical substance: 1.2
Yeast gene YGL181W
  The level of expressed mRNA in the presence of chemical substance/The level of expressed mRNA in the absence of chemical substance: 1.1
Yeast gene YGR088W
  The level of expressed mRNA in the presence of chemical substance/The level of expressed mRNA in the absence of chemical substance: 1.0
Yeast gene YHL028W
  The level of expressed mRNA in the presence of chemical substance/The level of expressed mRNA in the absence of chemical substance: 1.1
Yeast gene YHL046C
  The level of expressed mRNA in the presence of chemical substance/The level of expressed mRNA in the absence of chemical substance: 0.9
Yeast gene YHR030C
  The level of expressed mRNA in the presence of chemical substance/The level of expressed mRNA in the absence of chemical substance: 1.8
Yeast gene YHR057C
  The level of expressed mRNA in the presence of chemical substance/The level of expressed mRNA in the absence of chemical substance: 1.3
Yeast gene YHR104W
  The level of expressed mRNA in the presence of chemical substance/The level of expressed mRNA in the absence of chemical substance: 1.1
Yeast gene YIL011W
  The level of expressed mRNA in the presence of chemical substance/The level of expressed mRNA in the absence of chemical substance: 1.1
Yeast gene YIL033C
  The level of expressed mRNA in the presence of chemical substance/The level of expressed mRNA in the absence of chemical substance: 0.7
Yeast gene YIR037W
  The level of expressed mRNA in the presence of chemical substance/The level of expressed mRNA in the absence of chemical substance: 0.6
Yeast gene YIR038C
  The level of expressed mRNA in the presence of chemical substance/The level of expressed mRNA in the absence of chemical substance: 0.7
Yeast gene YJL128C
  The level of expressed mRNA in the presence of chemical substance/The level of expressed mRNA in the absence of chemical substance: 1.2
Yeast gene YJL158C
  The level of expressed mRNA in the presence of chemical substance/The level of expressed mRNA in the absence of chemical substance: 1.4
Yeast gene YJL159W
  The level of expressed mRNA in the presence of chemical substance/The level of expressed mRNA in the absence of chemical substance: 1.0
Yeast gene YJL165C
  The level of expressed mRNA in the presence of chemical substance/The level of expressed mRNA in the absence of chemical substance: 1.1
Yeast gene YJR045C
  The level of expressed mRNA in the presence of chemical substance/The level of expressed mRNA in the absence of chemical substance: 0.5
Yeast gene YJR090C
  The level of expressed mRNA in the presence of chemical substance/The level of expressed mRNA in the absence of chemical substance: 1.2
Yeast gene YKL161C
  The level of expressed mRNA in the presence of chemical substance/The level of expressed mRNA in the absence of chemical substance: 1.4
Yeast gene YKL163W
  The level of expressed mRNA in the presence of chemical substance/The level of expressed mRNA in the absence of chemical substance: 0.6
Yeast gene YKL164C
  The level of expressed mRNA in the presence of chemical substance/The level of expressed mRNA in the absence of chemical substance: 1.1
Yeast gene YKL210W
  The level of expressed mRNA in the presence of chemical substance/The level of expressed mRNA in the absence of chemical substance: 0.8
Yeast gene YKR053C
  The level of expressed mRNA in the presence of chemical substance/The level of expressed mRNA in the absence of chemical substance: 1.0
Yeast gene YLL024C
  The level of expressed mRNA in the presence of chemical substance/The level of expressed mRNA in the absence of chemical substance: 0.7
Yeast gene YLL026W
  The level of expressed mRNA in the presence of chemical substance/The level of expressed mRNA in the absence of chemical substance: 0.9
Yeast gene YLL039C
  The level of expressed mRNA in the presence of chemical substance/The level of expressed mRNA in the absence of chemical substance: 0.9
Yeast gene YLL060C
  The level of expressed mRNA in the presence of chemical substance/The level of expressed mRNA in the absence of chemical substance: 0.9
Yeast gene YLR006C
  The level of expressed mRNA in the presence of chemical substance/The level of expressed mRNA in the absence of chemical substance: 1.6
Yeast gene YLR109W
  The level of expressed mRNA in the presence of chemical substance/The level of expressed mRNA in the absence of chemical substance: 1.3
Yeast gene YLR259C
  The level of expressed mRNA in the presence of chemical substance/The level of expressed mRNA in the absence of chemical substance: 1.1
Yeast gene YML007W
  The level of expressed mRNA in the presence of chemical substance/The level of expressed mRNA in the absence of chemical substance: 1.0
Yeast gene YML070W
  The level of expressed mRNA in the presence of chemical substance/The level of expressed mRNA in the absence of chemical substance: 1.4
Yeast gene YMR021C
  The level of expressed mRNA in the presence of chemical substance/The level of expressed mRNA in the absence of chemical substance: 1.6
Yeast gene YMR173W
  The level of expressed mRNA in the presence of chemical substance/The level of expressed mRNA in the absence of chemical substance: 1.1
Yeast gene YMR186W
  The level of expressed mRNA in the presence of chemical substance/The level of expressed mRNA in the absence of chemical substance: 1.3
Yeast gene YNL064C
  The level of expressed mRNA in the presence of chemical substance/The level of expressed mRNA in the absence of chemical substance: 0.9
Yeast gene YNL160W
  The level of expressed mRNA in the presence of chemical substance/The level of expressed mRNA in the absence of chemical substance: 1.3
Yeast gene YNL241C
  The level of expressed mRNA in the presence of chemical substance/The level of expressed mRNA in the absence of chemical substance: 0.8
Yeast gene YNR076W
  The level of expressed mRNA in the presence of chemical substance/The level of expressed mRNA in the absence of chemical substance: 1.2
Yeast gene YOL064C
  The level of expressed mRNA in the presence of chemical substance/The level of expressed mRNA in the absence of chemical substance: 0.9
Yeast gene YOL161C
  The level of expressed mRNA in the presence of chemical substance/The level of expressed mRNA in the absence of chemical substance: 0.9
Yeast gene YOR008C
  The level of expressed mRNA in the presence of chemical substance/The level of expressed mRNA in the absence of chemical substance: 1.4
Yeast gene YOR009W
  The level of expressed mRNA in the presence of chemical substance/The level of expressed mRNA in the absence of chemical substance: 0.8
Yeast gene YOR010C
  The level of expressed mRNA in the presence of chemical substance/The level of expressed mRNA in the absence of chemical substance: 1.2
Yeast gene YOR027W
  The level of expressed mRNA in the presence of chemical substance/The level of expressed mRNA in the absence of chemical substance: 1.0
Yeast gene YOR208W
  The level of expressed mRNA in the presence of chemical substance/The level of expressed mRNA in the absence of chemical substance: 1.4
Yeast gene YPL059W
  The level of expressed mRNA in the presence of chemical substance/The level of expressed mRNA in the absence of chemical substance: 1.2
Yeast gene YPL106C
  The level of expressed mRNA in the presence of chemical substance/The level of expressed mRNA in the absence of chemical substance: 1.2
Yeast gene YPL140C
  The level of expressed mRNA in the presence of chemical substance/The level of expressed mRNA in the absence of chemical substance: 0.8
Yeast gene YPL194W
  The level of expressed mRNA in the presence of chemical substance/The level of expressed mRNA in the absence of chemical substance: 1.3
Yeast gene YPL223C
  The level of expressed mRNA in the presence of chemical substance/The level of expressed mRNA in the absence of chemical substance: 0.9
Yeast gene YPL240C
  The level of expressed mRNA in the presence of chemical substance/The level of expressed mRNA in the absence of chemical substance: 1.3
Yeast gene YPR005C
  The level of expressed mRNA in the presence of chemical substance/The level of expressed mRNA in the absence of chemical substance: 1.0
Yeast gene YPR026W
  The level of expressed mRNA in the presence of chemical substance/The level of expressed mRNA in the absence of chemical substance: 0.8
